In BindingDB's records for patent US20230322789 (Broadenbio, 2023):
pIC50: −log10 of the molar value.

Target: Mitogen-activated protein kinase kinase kinase kinase 1 (Homo sapiens, UniProt Q92918)
Assay: HPK1 Kinase Activity Inhibition Assay
Procedure: 1. HPK1 Kinase Activity Inhibition Test. The kinase activity of HPK1 is manifested as activity of autophosphorylation and phosphorylation of downstream substrates. In the process of autophosphorylation, additional substrates are not required, and ATP is consumed to generate ADP. […] Transfer 2 μL of 2×[…] kinase solution to 384 reaction plate, add 1 μL of the test compound to the 384 reaction plate (Greiner, 784075), centrifuge for 1 minute (1000 rpm/min), incubate at 25° C. for 10 minutes. […] of the 4×ATP mixture to a 384 reaction plate, centrifuge for 1 minute (1000 rpm/mm), and incubate at 25° C. for 60 minutes. In the reaction system, the final concentration of DMSO was […]. Transfer 4 μL of ADP-Glo to a 384 reaction plate, centrifuge for 1 minute (1000 rpm/min), and incubate at 25° C. for 40 minutes. Transfer 8 μL detection solution to a 384 reaction plate, centrifuge for 1 minute (1000 rpm/min), and incubate at 25° C. for 40 minutes. The […] signal was read using a Biotek multi-function plate reader, and the […] (half inhibitory concentration) of the compound was obtained using a four-coefficient nonlinear fitting formula.

Sequence of Mitogen-activated protein kinase kinase kinase kinase 1 (Q92918 whole entry): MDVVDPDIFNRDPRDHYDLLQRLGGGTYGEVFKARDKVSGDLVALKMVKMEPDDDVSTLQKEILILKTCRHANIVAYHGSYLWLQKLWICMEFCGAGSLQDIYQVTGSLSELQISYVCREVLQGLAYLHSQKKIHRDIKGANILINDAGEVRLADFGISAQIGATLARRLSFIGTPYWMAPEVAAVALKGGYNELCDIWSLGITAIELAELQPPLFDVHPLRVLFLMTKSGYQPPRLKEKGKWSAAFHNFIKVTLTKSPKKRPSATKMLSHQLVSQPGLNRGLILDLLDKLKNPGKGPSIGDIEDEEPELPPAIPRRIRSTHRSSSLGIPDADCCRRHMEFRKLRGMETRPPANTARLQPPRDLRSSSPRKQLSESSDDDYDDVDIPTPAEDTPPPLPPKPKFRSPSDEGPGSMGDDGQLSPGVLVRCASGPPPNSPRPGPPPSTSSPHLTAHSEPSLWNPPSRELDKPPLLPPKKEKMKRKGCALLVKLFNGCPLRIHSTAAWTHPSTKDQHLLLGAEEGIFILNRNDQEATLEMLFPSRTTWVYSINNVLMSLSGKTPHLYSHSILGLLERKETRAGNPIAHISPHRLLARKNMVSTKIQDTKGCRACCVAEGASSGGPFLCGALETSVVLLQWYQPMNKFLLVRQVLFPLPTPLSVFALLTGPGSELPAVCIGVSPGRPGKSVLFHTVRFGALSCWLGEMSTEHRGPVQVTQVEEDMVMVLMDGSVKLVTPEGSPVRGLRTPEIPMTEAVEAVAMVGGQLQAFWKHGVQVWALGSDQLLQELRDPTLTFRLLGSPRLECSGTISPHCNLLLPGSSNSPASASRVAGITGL

Row | Compound | pIC50
1 | CCc1cccc(F)c1-n1nc2c(-c3ccc(N4CCN(CC(C)(C)O)CC4)cc3)n[nH]c2cc1=O [US20230322789, Compound 116] | > 7.30
2 | Cc1cccc(F)c1-n1nc2c(-c3ccc(N4CCN5C(=O)OCC5C4)nc3)n[nH]c2cc1=O (configuration not stated) [US20230322789, Compound 129] | > 7.30
